# In US9867811B2, “Method of treating atherosclerosis in high triglyceride subjects” (NOVARTIS AG, priority 2011, dated 2018):
# Test: HDL-C in cynomolgus monkeys on chow or high carbohydrate diet
# Assay type: in vivo
# Settings: Anacetrapib 10 mg/kg, mean ± SD; for HDL-C % Δ vs day 0, Day 7, Chow / HDL-C % Δ vs day 0, Day 14, Chow: chow diet; for HDL-C % Δ vs day 0, Day 7, Chow / HDL-C % Δ vs day 0, Day 7, High CHO: day 7, Example 8 3 mg/kg; for HDL-C % Δ vs day 0, Day 14, Chow / HDL-C % Δ vs day 0, Day 14, High CHO: day 14, Example 8 3 mg/kg; for HDL-C % Δ vs day 0, Day 7, High CHO / HDL-C % Δ vs day 0, Day 14, High CHO: high carbohydrate diet
# Source text: Normal male cynomolgus monkeys (n=17) weighing between 8-14 kg are placed on a high-carbohydrate, low-fat diet. The caloric composition of the diet is approximately 13.4% protein, 79.1% carbohydrate (sugar to starch ratio 50:50) and 7.5% fat. Calories are derived from standard monkey chow (LabDiet® 5047, PMI, Richmond, Ind. or LabDiet® 5000, Balanced Fiber diet, PMI, Richmond, Ind.) in quantities necessary to meet the protein and fat requirements, with the remaining calories provided by sugar-sweetened cereals, candies, and fruit (banana, orange, cantaloupe, honeydew, pineapple). The high-carbohydrate (CHO) diet will be fed for 18 days (4 days of pre-drug diet, 14 days of drug treatment), after which time they will return to their regular chow diets for a 14 day washout period followed by a second 14 day dosing phase of the study (normal diet).
# Compound of Example 8 is dissolved at 30 mg/mL in 1M NaOH+ethanol:maisoel glyceride:propylene glycol:cremophor RH40 (10:36:9:45) and diluted 1:10 in ddH2O. […] The formulations are prepared each day (weekend doses are prepared on Friday) and stored stirring and protected from light at room temperature until dosing. Artificial flavor and color will be added to the dose when prepared.
# The animals will ingest the compounds (1 mL/kg) voluntarily from a plastic syringe offered at their home cage at approximately 8 am daily. Animals will be fed 60 minutes after the dose is administered.
# Blood collection will take place weekly during each dosing phase. Animals are fasted overnight (approximately 16 hours) prior to blood collection. Blood samples are collected from a saphenous vein via needle and syringe and put into 2 mL EDTA-coated tubes that are immediately placed on ice until centrifugation. Samples are centrifuged at 3,000 rpm for 20 minutes. The plasma is collected, divided into aliquots (listed below), and stored at −70° C. until analysis.
Structure (SMILES),"HDL-C % Δ vs day 0, Day 7, Chow [%]","HDL-C % Δ vs day 0, Day 14, Chow [%]","HDL-C % Δ vs day 0, Day 7, High CHO [%]","HDL-C % Δ vs day 0, Day 14, High CHO [%]"
"COc1cc(F)c(C(C)C)cc1-c1ccc(C(F)(F)F)cc1CN1C(=O)O[C@H](c2cc(C(F)(F)F)cc(C(F)(F)F)c2)[C@@H]1C [Anacetrapib, reference compound]",141 ± 45,136 ± 28,172 ± 34,184 ± 45
CC[C@@H]1C[C@H](N(Cc2cc(C(F)(F)F)cc(C(F)(F)F)c2)c2ncc(-c3cnn(C)c3)cn2)C[C@H](CC)N1C(=O)O[C@H]1CC[C@H](C(=O)O)CC1 [Example 8],144 ± 57,142 ± 33,210 ± 24,241 ± 29
